Values of other authors as cited in patent US20250345482A1, “3D PRINTED GALLIUM SCAFFOLD” (Northeast Ohio Medical University, priority 2024, published 2025).

Key:
[1] = test system: osteoclast differentiation and function; conditions: inventors' earlier publication (Ghanta P. et al. 2023)
NFAT2, TRAP, and c-Fos = conditions: literature (Verron E et al. 2012)

For `CC(=O)/C=C(/C)[O][Ga]([O]/C(C)=C\C(C)=O)[O]/C(C)=C\C(C)=O` [GaAcAc, gallium acetylacetonate], the “Osteoclast differentiation and function” value [1] is listed as “effectively inhibited”.
In the case of `O=[N+]([O-])[O-].O=[N+]([O-])[O-].O=[N+]([O-])[O-].[Ga+3]` [gallium nitrate], the “Effect on transcription factors responsible for osteoclast differentiation” value (NFAT2, TRAP, and c-Fos) is listed as “dose-dependent downregulation”.
